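How tested: cells in 96-well plates exposed to compound for 48 hours at five concentrations. The concentration for 50% growth inhibition is given as GI50.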 Active and inactive are the calls of the source. No stated cut-off is given here; in the data, active = GI50 up to about 1.1 µM and inactive = higher.
Experiments:
Assay in all cases: growth of human tumour cells (NCI), 48 h
BT-549 = test system: BT-549
DU-145 = test system: DU-145
SNB-75 = test system: SNB-75
MDA-MB-435 = test system: MDA-MB-435
LOX IMVI = test system: LOX IMVI
SF-295 = test system: SF-295
NCI-H460 = test system: NCI-H460
SK-MEL-28 = test system: SK-MEL-28
HOP-92 = test system: HOP-92
SK-MEL-2 = test system: SK-MEL-2
HCT-116 = test system: HCT-116
IGROV-1 = test system: IGROV-1
NCI-H226 = test system: NCI-H226
K562 = test system: K562
SNB-19 = test system: SNB-19
SK-OV-3 = test system: SK-OV-3
OVCAR-8 = test system: OVCAR-8
HOP-62 = test system: HOP-62
UO-31 = test system: UO-31
EKVX = test system: EKVX
T47D = test system: T47D
786-0 = test system: 786-0
HCC 2998 = test system: HCC 2998
M14 = test system: M14
OVCAR-5 = test system: OVCAR-5
MOLT-4 = test system: MOLT-4
HCT-15 = test system: HCT-15
CCRF-CEM = test system: CCRF-CEM
CAKI-1 = test system: CAKI-1
MCF7 = test system: MCF7
KM12 = test system: KM12
OVCAR-3 = test system: OVCAR-3
NCI/ADR-RES = test system: NCI/ADR-RES
UACC-257 = test system: UACC-257
SN12C = test system: SN12C
ACHN = test system: ACHN
A549 = test system: A549
U-251 = test system: U-251
HT-29 = test system: HT-29
UACC-62 = test system: UACC-62
SK-MEL-5 = test system: SK-MEL-5
COLO 205 = test system: COLO 205
A498 = test system: A498
RPMI-8226 = test system: RPMI-8226
NCI-H23 = test system: NCI-H23
MDA-N = test system: MDA-N
PC-3 = test system: PC-3
SW-620 = test system: SW-620
SR = test system: SR
SF-539 = test system: SF-539
HL-60 = test system: HL-60
TK-10 = test system: TK-10
MDA-MB-231 = test system: MDA-MB-231
SF-268 = test system: SF-268
OVCAR-4 = test system: OVCAR-4
Malme-3M = test system: Malme-3M

Measured: GI50

CN1CCN(/C(N)=C(\C#N)C(=O)Nc2ccc(Cl)cc2)CC1
inactive: BT-549 > 100 µM | DU-145 79.3 µM | SNB-75 > 100 µM | MDA-MB-435 37.5 µM | LOX IMVI 47.9 µM | SF-295 75.7 µM | NCI-H460 74.6 µM | SK-MEL-28 46.6 µM | HOP-92 > 100 µM | SK-MEL-2 32.7 µM | HCT-116 41.6 µM | IGROV-1 99.1 µM | NCI-H226 > 100 µM | K562 23 µM | SNB-19 > 100 µM | SK-OV-3 > 100 µM | OVCAR-8 > 100 µM | HOP-62 > 100 µM | UO-31 55.1 µM | EKVX 78.2 µM | T47D > 100 µM | 786-0 95.5 µM | HCC 2998 59.6 µM | M14 30.6 µM | OVCAR-5 > 100 µM | MOLT-4 54.8 µM | CCRF-CEM 30.1 µM | CAKI-1 79.8 µM | MCF7 68.4 µM | KM12 59 µM | OVCAR-3 41.7 µM | NCI/ADR-RES 87.9 µM | UACC-257 59 µM | SN12C > 100 µM | ACHN > 100 µM | A549 > 100 µM | U-251 96.8 µM | HT-29 > 100 µM | UACC-62 23 µM | SK-MEL-5 27.5 µM | COLO 205 18.7 µM | A498 40.4 µM | RPMI-8226 27.5 µM | NCI-H23 67 µM | MDA-N 52.4 µM | PC-3 39.8 µM | SW-620 > 100 µM | SR 35.1 µM | SF-539 > 100 µM
57.9 µM: HCT-15

CC(=O)OC1CC2C(=O)C(=O)C1(C)C2(C)C (stereo unspecified)
> 100 µM: HCT-15
inactive: BT-549 > 100 µM | DU-145 > 100 µM | SNB-75 > 100 µM | MDA-MB-435 > 100 µM | HL-60 > 10 µM | SF-295 > 100 µM | NCI-H460 > 100 µM | SK-MEL-28 > 100 µM | HOP-92 56.6 µM | HCT-116 > 100 µM | IGROV-1 > 100 µM | NCI-H226 > 100 µM | K562 > 100 µM | SNB-19 > 100 µM | SK-OV-3 > 100 µM | OVCAR-8 > 100 µM | HOP-62 > 100 µM | UO-31 > 100 µM | EKVX > 100 µM | T47D > 100 µM | 786-0 > 100 µM | HCC 2998 > 100 µM | M14 > 100 µM | OVCAR-5 > 100 µM | MOLT-4 > 100 µM | CCRF-CEM > 100 µM | MCF7 > 100 µM | OVCAR-3 > 100 µM | NCI/ADR-RES > 100 µM | UACC-257 > 100 µM | TK-10 > 100 µM | SN12C > 100 µM | MDA-MB-231 > 100 µM | SF-268 > 100 µM | ACHN > 100 µM | A549 > 100 µM | U-251 > 100 µM | HT-29 > 100 µM | UACC-62 > 100 µM | OVCAR-4 > 100 µM | SK-MEL-5 > 100 µM | COLO 205 > 100 µM | A498 > 100 µM | RPMI-8226 > 100 µM | NCI-H23 > 100 µM | MDA-N > 100 µM | PC-3 > 100 µM | SW-620 > 100 µM | SR > 100 µM | Malme-3M > 100 µM

Reference: ChEMBL document CHEMBL1201862, “PubChem BioAssay data set” (2004)
